Measurements as given in patent US9181227B2, “Potent and selective inhibitors of hepatitis C virus” (Cocrystal Pharma, Inc., priority 2010, dated 2015).
Read-outs that look alike come from different tables or passages of the source.

Legend:
Type in all cases: cell-based
HCV 1b = assay: HCV Replicon Assay; conditions: Hepatitis C virus
Procedure: (§1) Huh 7 Clone B cells containing HCV Replicon RNA would be seeded in a 96-well plate at 5000 cells/well, and the compounds tested at 10 μM in triplicate immediately after seeding. Following five days incubation (37° C., 5% CO2), total cellular RNA was isolated by using versaGene RNA purification kit from Gentra. Replicon RNA and an internal control (TaqMan rRNA control reagents, Applied Biosystems) were amplified in a single step multiplex Real Time RT-PCR Assay. The antiviral effectiveness of the compounds was calculated by subtracting the threshold RT-PCR cycle of the test compound from the threshold RT-PCR cycle of the no-drug control (ΔCt HCV). A ΔCt of 3.3 equals a 1-log reduction (equal to 90% less starting material) in Replicon RNA levels. The cytotoxicity of the compounds was also calculated by using the ΔCt rRNA values. 2′-C-Me-C was used as the positive control. To determine EC90 and IC50 values^2, ΔCt: values were first converted into fraction of starting material^3 and then were used to calculate the % inhibition.
• 1. Stuyver L et al., Ribonucleoside analogue that blocks replication or bovine viral diarrhea and hepatitis C viruses in culture. Antimicrob. Agents Chemother. 2003, 47, 244-254. • 2. Reed I J & Muench H, A simple method or estimating fifty percent endpoints. Am. J. Hyg. 27: 497, 1938. • 3.
A series of additional compounds was evaluated using the methods described herein.

[1] = system: CEM (human lymphoblastoid) cells; assay: Cellular toxicity assay, CEM cells; conditions: cytotoxicity IC50, CEM cells
Procedure: (§2) The toxicity of the compounds was assessed in Vero, human PBM, CEM (human lymphoblastoid), MT-2, and HepG2 cells, as described previously (see Schinazi R. F., Sommadossi J.-P., Saalmann V., Cannon D. L., Xie M.-Y., Hart G. C., Smith G. A. & Hahn E. F. Antimicrob. Agents Chemother. 1990, 34, 1061-67). Cycloheximide was included as positive cytotoxic control, and untreated cells exposed to solvent were included as negative controls. The cytotoxicity IC50 was obtained from the concentration-response curve using the median effective method described previously (see Chou T.-C. & Talalay P. Adv. Enzyme Regul. 1984, 22, 27-55; Belen'kii M. S. & Schinazi R. F. Antiviral Res. 1994, 25, 1-11).

[2] = Cytotoxicity in replicon cells by ΔCt rRNA values; conditions: human, Huh 7 Clone B cells containing HCV replicon RNA
Procedure: as §1

human PBM cells = assay: Cellular toxicity assay, PBM cells; conditions: cytotoxicity IC50, human PBM cells
Procedure: as §2

Vero cells = assay: Cellular toxicity assay, Vero cells; conditions: cytotoxicity IC50, Vero cells
Procedure: as §2

[3] = 120 h, Huh 7 Clone B cells containing HCV Replicon RNA, five days incubation, read-out: Replicon activity (Median Effective concentration EC50 range against HCV 1b)
[4] = Huh-7, 120 h, read-out: Replicon EC50 (range against HCV 1b)
[5] = 120 h, Huh 7 Clone B cells containing HCV Replicon RNA, five days incubation, read-out: Replicon EC50 (range against HCV 1b)

SMILES	EC50 (HCV 1b; [3])	Toxicities CEM [1]	EC50 (HCV 1b; [4])	CC50 at 5 days [2]	Toxicities PBM (human PBM cells)	EC50 (HCV 1b; [5])	Toxicities VERO (Vero cells)
COC(=O)N[C@@H](CC(C)C)C(=O)N1CCC[C@H]1c1ncc(-c2ccc(-c3ccccc3)cc2)[nH]1	100 to 999 nM						
COC(=O)N[C@H](C(=O)N1CCC[C@H]1c1ncc(-c2ccc(-n3cc(-c4cncn4C)nn3)cc2)[nH]1)C(C)C	100 to 999 nM						
COC(=O)N[C@H](C(=O)N1C[C@@H](n2cc(COC(C)=O)nn2)C[C@H]1c1ncc(-c2ccc(-c3ccc(-c4cnc([C@@H]5C[C@H](n6cc(COC(C)=O)nn6)CN5C(=O)[C@@H](NC(=O)OC)C(C)C)[nH]4)cc3)cc2)[nH]1)C(C)C		13.5 µM	100 to 999 nM	> 1000 nM	53 µM		
COC(=O)N[C@H](C(=O)N1CCC[C@H]1c1ncc(-c2ccc(N=[N+]=[N-])cc2)[nH]1)C(C)C	1 to 99 nM						
C#Cc1ccc(-c2cn(-c3ccc(-c4cnc(C5CCCN5C(=O)[C@@H](NC(=O)OC)C(C)C)[nH]4)cc3)nn2)cc1 (stereo partly shown)	1 to 99 nM						
COC(=O)N[C@H](C(=O)N1C[C@H](n2ccnn2)C[C@H]1c1ncc(-c2ccc(-c3ccc(-c4cnc([C@@H]5C[C@@H](n6cc([Si](C)(C)C)nn6)CN5C(=O)[C@@H](NC(=O)OC)C(C)C)[nH]4)cc3)cc2)[nH]1)C(C)C		16.2 µM		> 1000 nM	3 µM	1 to 99 nM	> 100 µM
COC(=O)N[C@H](C(=O)N1C[C@H](n2cc([Si](C)(C)C)nn2)C[C@H]1c1ncc(-c2ccc(-c3ccc(-c4cnc([C@@H]5C[C@@H](n6cc([Si](C)(C)C)nn6)CN5C(=O)[C@@H](NC(=O)OC)C(C)C)[nH]4)cc3)cc2)[nH]1)C(C)C		25.2 µM		> 1000 nM	> 100 µM	1 to 99 nM	> 100 µM
COC(=O)N[C@H](C(=O)N1C[C@H](n2cc(-c3ccccc3)nn2)C[C@H]1c1ncc(-c2ccc(-c3ccc(-c4cnc([C@@H]5C[C@@H](n6cc(-c7ccccc7)nn6)CN5C(=O)[C@@H](NC(=O)OC)C(C)C)[nH]4)cc3)cc2)[nH]1)C(C)C		> 100 µM		> 1000 nM	> 100 µM	1 to 99 nM	> 100 µM
COC(=O)N[C@H](C(=O)N1CCC[C@H]1c1ncc(-c2ccc(-c3ccccc3)cc2)[nH]1)C(C)C [Methyl ((S)-1-((S)-2-(5-([1,1′-biphenyl]-4-yl)-1H-imidazol-2-yl)pyrrolidin-1-yl)-3-methyl-1-oxobutan-2-yl)carbamate]	100 to 999 nM						
COC(=O)N[C@H](C(=O)N1C[C@@H](n2cc(C(=O)OC)nn2)C[C@H]1c1ncc(-c2ccc(-c3ccc(-c4cnc([C@@H]5C[C@H](n6cc(C(=O)OC)nn6)CN5C(=O)[C@@H](NC(=O)OC)C(C)C)[nH]4)cc3)cc2)[nH]1)C(C)C		13.5 µM	100 to 999 nM	> 1000 nM	53 µM		
COC(=O)N[C@H](C(=O)N1CCC[C@H]1c1ncc(-c2ccc(-n3cc(-c4ccccc4)nn3)cc2)[nH]1)C(C)C [Methyl ((S)-3-methyl-1-oxo-1-((S)-2-(5-(4-(4-phenyl-1H-1,2,3-triazol-1-yl)phenyl)-1H-imidazol-2-yl)pyrrolidin-1-yl)butan-2-yl)carbamate]	100 to 999 nM						
COC(=O)N[C@H](C(=O)N1C[C@@H](SC)C[C@H]1c1ncc(-c2ccc(-c3ccc(-c4cnc([C@@H]5C[C@H](SC)CN5C(=O)[C@@H](NC(=O)OC)C(C)C)[nH]4)cc3)cc2)[nH]1)C(C)C		13.3 µM		> 1000 nM	15.6 µM	< 1 nM	10.9 µM
